# From patent US8030498B2, “Benzoylpyrazole compounds and herbicides containing them” (Ishihara Sangyo Kaisha, Ltd., priority 2005, dated 2011)
# How the values were obtained:
# [1] = tested on: barnyardgrass (Echinochloa crus-galli L.); assay: Test Example 1: foliar treatment, growth inhibition rate, barnyardgrass; assay type: in vivo; details: 31 g/ha active ingredient, visually observed 17th to 23rd day after application
# Summary of the method: (§1)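 Visual scoring of growth inhibition, 0% (untreated) to 100% (complete kill), on days 17–23 following post-emergence spray of formulated compound in water (500 L/ha, 0.1 vol % spreader); plants treated at set leaf stages, e.g. corn 2.0–3.5, wheat 1.7–3.4.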
# [2] = tested on: crabgrass (Digitaria sanguinalis L.); assay: Test Example 1: foliar treatment, growth inhibition rate, crabgrass; assay type: in vivo; details: 31 g/ha active ingredient, visually observed 17th to 23rd day after application
# Summary of the method: as §1
# [3] = tested on: greenfoxtail (Setaria viridis L.); assay: Test Example 1: foliar treatment, growth inhibition rate, greenfoxtail; assay type: in vivo; details: 31 g/ha active ingredient, visually observed 17th to 23rd day after application
# Summary of the method: (§2)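 Post-emergence foliar spray, pot test; WP/EC formulation in water at 500 L/ha, + 0.1 vol % spreader; leaf stage at treatment: corn 2.0–3.5, green foxtail 1.0–3.0, rice 1.0–2.5, wheat 1.7–3.4; visual % inhibition at 17–23 DAT (0 = untreated, 100 = dead).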
# [4] = tested on: redroot pigweed (Amaranthus retroflexus L.); assay: Test Example 1: foliar treatment, growth inhibition rate, redroot pigweed; assay type: in vivo; details: 31 g/ha active ingredient, visually observed 17th to 23rd day after application
# Summary of the method: as §1
# [5] = tested on: prickly sida (Sida spinosa L.); assay: Test Example 1: foliar treatment, growth inhibition rate, prickly sida; assay type: in vivo; details: 31 g/ha active ingredient, visually observed 17th to 23rd day after application
# Summary of the method: as §1
# [6] = tested on: velvetleaf (Abutilon theophrasti MEDIC.); assay: Test Example 1: foliar treatment, growth inhibition rate, velvetleaf; assay type: in vivo; details: 31 g/ha active ingredient, visually observed 17th to 23rd day after application
# Summary of the method: as §1
# [7] = tested on: rice (Oryza sativa L.); assay: Test Example 1: foliar treatment, growth inhibition rate, rice; assay type: in vivo; details: 31 g/ha active ingredient, visually observed 17th to 23rd day after application
# Summary of the method: as §2
# [8] = tested on: wheat (Triticum spp.); assay: Test Example 1: foliar treatment, growth inhibition rate, wheat; assay type: in vivo; details: 31 g/ha active ingredient, visually observed 17th to 23rd day after application
# Summary of the method: as §2
# [9] = tested on: corn (Zea mays L.); assay: Test Example 1: foliar treatment, growth inhibition rate, corn; assay type: in vivo; details: 31 g/ha active ingredient, visually observed 17th to 23rd day after application
# Summary of the method: as §2
# [10] = tested on: soybean (Glycine max Merr.); assay: Test Example 1: foliar treatment, growth inhibition rate, soybean; assay type: in vivo; details: 31 g/ha active ingredient, visually observed 17th to 23rd day after application
# Summary of the method: as §1
# [11] = tested on: barnyardgrass; assay: Test Example 2: soil application on the day after sowing, growth inhibition rate, barnyardgrass; assay type: in vivo, Echinochloa crus-galli L.; details: 250 g/ha active ingredient, observed on 19th to 24th day
# Summary of the method: (§3)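 Seeds were sown in upland field soil in pots, and on the following day compounds formulated as wettable powders or emulsifiable concentrates were diluted in water (500 liter per hectare) and sprayed onto the soil at prescribed active-ingredient doses. Growth was scored visually 19–24 days later, 0 = untreated to 100% = complete kill.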
# [12] = tested on: crabgrass; assay: Test Example 2: soil application on the day after sowing, growth inhibition rate, crabgrass; assay type: in vivo, Digitaria sanguinalis L.; details: 250 g/ha active ingredient, observed on 19th to 24th day
# Summary of the method: as §3
# [13] = tested on: greenfoxtail; assay: Test Example 2: soil application on the day after sowing, growth inhibition rate, greenfoxtail; assay type: in vivo, Setaria viridis L.; details: 250 g/ha active ingredient, observed on 19th to 24th day
# Summary of the method: as §3
# [14] = tested on: redroot pigweed; assay: Test Example 2: soil application on the day after sowing, growth inhibition rate, redroot pigweed; assay type: in vivo, Amaranthus retroflexus L.; details: 250 g/ha active ingredient, observed on 19th to 24th day
# Summary of the method: as §3
# [15] = tested on: prickly sida; assay: Test Example 2: soil application on the day after sowing, growth inhibition rate, prickly sida; assay type: in vivo, Sida spinosa L.; details: 250 g/ha active ingredient, observed on 19th to 24th day
# Summary of the method: as §3
# [16] = tested on: velvetleaf; assay: Test Example 2: soil application on the day after sowing, growth inhibition rate, velvetleaf; assay type: in vivo, Abutilon theophrasti MEDIC.; details: 250 g/ha active ingredient, observed on 19th to 24th day
# Summary of the method: as §3
# [17] = tested on: rice; assay: Test Example 2: soil application on the day after sowing, growth inhibition rate, rice; assay type: in vivo, Oryza sativa L.; details: 250 g/ha active ingredient, observed on 19th to 24th day
# Summary of the method: as §3
# [18] = tested on: wheat; assay: Test Example 2: soil application on the day after sowing, growth inhibition rate, wheat; assay type: in vivo, Triticum spp.; details: 250 g/ha active ingredient, observed on 19th to 24th day
# Summary of the method: as §3
# [19] = tested on: corn; assay: Test Example 2: soil application on the day after sowing, growth inhibition rate, corn; assay type: in vivo, Zea mays L.; details: 250 g/ha active ingredient, observed on 19th to 24th day
# Summary of the method: as §3
# [20] = tested on: soybean; assay: Test Example 2: soil application on the day after sowing, growth inhibition rate, soybean; assay type: in vivo, Glycine max Merr.; details: 250 g/ha active ingredient, observed on 19th to 24th day
# Summary of the method: as §3
Structure (SMILES),Growth inhibition rate (%) Barnyardgrass [1] [%],Growth inhibition rate (%) Crabgrass [2] [%],Growth inhibition rate (%) Greenfoxtail [3] [%],Growth inhibition rate (%) redroot pigweed [4] [%],Growth inhibition rate (%) Prickly sida [5] [%],Growth inhibition rate (%) Velvetleaf [6] [%],Growth inhibition rate (%) Rice [7] [%],Growth inhibition rate (%) Wheat [8] [%],Growth inhibition rate (%) Corn [9] [%],Growth inhibition rate (%) Soybean [10] [%],Growth inhibition rate (%) Barnyardgrass [11] [%],Growth inhibition rate (%) Crabgrass [12] [%],Growth inhibition rate (%) Greenfoxtail [13] [%],Growth inhibition rate (%) redroot pigweed [14] [%],Growth inhibition rate (%) Prickly sida [15] [%],Growth inhibition rate (%) Velvetleaf [16] [%],Growth inhibition rate (%) Rice [17] [%],Growth inhibition rate (%) Wheat [18] [%],Growth inhibition rate (%) Corn [19] [%],Growth inhibition rate (%) Soybean [20] [%]
CCSC(=O)Oc1c(C(=O)c2ccc(S(C)(=O)=O)c(C(=O)OC)c2Cl)cnn1CC [compound 95],100,90,100,100,80,90,90,20,10,95,100,95,100,100,95,80,98,0,0,0
CCn1ncc(C(=O)c2ccc(S(C)(=O)=O)c(C(=O)OC)c2C)c1OC(=O)SC(C)C [compound 87],95,100,100,100,75,95,90,10,10,95,80,90,70,95,70,50,80,0,0,0
CCOC(=O)COc1c(S(C)(=O)=O)ccc(C(=O)c2cnn(C)c2OC(=O)SCC)c1C [compound 65],20,10,10,30,30,50,0,0,0,10,0,10,10,20,0,0,0,0,0,0
CCCSC(=O)Oc1c(C(=O)c2ccc(S(C)(=O)=O)c(C(=O)OC)c2C)cnn1C [compound 84],98,98,100,100,100,95,95,50,10,95,98,100,100,100,98,98,98,0,30,50
CCn1ncc(C(=O)c2ccc(S(C)(=O)=O)c(C(=O)OC)c2Cl)c1OC(=O)SC [compound 97],100,70,100,100,50,80,60,10,0,80,100,100,100,100,100,100,70,0,0,10
CCSC(=O)Oc1c(C(=O)c2ccc(S(C)(=O)=O)c(C#N)c2C)cnn1C [compound 82],70,40,60,60,50,70,40,0,0,70,30,70,20,50,80,20,10,0,0,0
CCSC(=O)Oc1c(C(=O)c2ccc(S(C)(=O)=O)c(OC3CCOC3)c2C)cnn1C (stereo not drawn) [compound 217],100,100,98,100,70,80,90,40,0,98,80,95,60,95,60,20,80,0,0,0
CCn1ncc(C(=O)c2ccc(S(C)(=O)=O)c(C(=O)OC)c2C)c1OC(=O)SC(C)(C)C [compound 91],95,98,98,98,75,95,90,0,20,98,90,95,60,100,95,70,80,0,0,30
C=CCSC(=O)Oc1c(C(=O)c2ccc(S(C)(=O)=O)c(C(=O)OC)c2C)cnn1CC [compound 99],98,100,100,98,100,98,95,60,50,98,100,100,100,95,100,100,100,0,0,40
